US12221422B2, “Compounds and their use for the treatment of alpha1-antitrypsin deficiency” (CENTESSA PHARMACEUTICALS (UK) LIMITED, priority 2018, dated 2025)

Columns and labels:
Pharmacokinetics in rats = type: in vivo; conditions: rat, whole blood, Sprague Dawley rats
Protocol: Compounds were administered to Sprague Dawley rats intravenously (2 mg/kg) or orally (10 mg/kg) by gavage. Whole blood diluted with water was prepared from these dosed animals over a time course up to 24 hours post dose to allow blood concentrations of drug to be measured by UPLC-MS/MS.

[1] = Plasma protein binding, mouse plasma (rapid equilibrium dialysis); type: in vitro ADME; conditions: 37° C.
Protocol: The extent to which compounds of the invention bound to plasma proteins such as albumin and alpha-1 acid glycoprotein within human, rat or mouse plasma was determined by rapid equilibrium dialysis. Compounds were incubated at 5 μM for 4 hours at 37° C. Plasma protein binding for N,N-dimethyl-4-((6-oxopyrimidin-1(6H)-yl)methyl)benzamide in mouse plasma was 37.3%, in rat plasma was 14.8% and in human plasma was 30.6%.

CYP 3A4 = molecular target: T1, CYP 3A4 (Homo sapiens, UniProt P08684); experiment: CYP inhibition, E. coli CYPEX membranes; type: in vitro ADME; conditions: specific probe substrates
T1 construct: purchased CYPEX; host or cells: E. coli
Protocol: Using E. coli CYPEX membranes in combination with specific probe substrates, the inhibition of individual CYPs by compounds of the invention using the method described in Weaver et al., 2003, Drug Metab Dispos 31:7, 955-966 was assessed.

[2] = molecular target: cardiac potassium (hERG) channels (Homo sapiens, UniProt Q12809); experiment: hERG channel inhibition, Patchliner automated patch clamp; type: cell-based; conditions: automated patch clamp, maximum test concentration 100 μM
Protocol: (§1) Compounds of the invention were tested for inhibition of cardiac potassium (hERG) channels using the Patchliner automated patch clamp. 6-Point concentration-response curves were generated using half-log serial dilutions from a maximum final test concentration of 100 μM. IC50 values were obtained from a 4-parameter logistic fit of the concentration-response data. […] Reference compound values were consistent with those presented in the literature (Elkins et al., 2013 J. Pharm. Tox. Meth. 68:11-122).

hERG = hERG (Homo sapiens, UniProt Q12809); experiment: as above; type: cell-based; conditions: human; at 100 μM
Protocol: as §1

[3] = test system: TA98, TA100, WP2 uvrA, TA1535, TA1537 bacterial strains; experiment: Bacterial reverse mutation test; conditions: up to 5000 μg/plate, presence and absence of S-9 mix
Protocol: The purpose of the bacterial reverse mutation test is to assess the mutagenic potential of the test item by its ability to revert the specified bacterial strains from auxotrophic growth to prototrophy. The assay detects point (gene) mutations at specific histidine or tryptophan loci, which may be induced by compounds that cause base pair substitutions or frameshift mutations in the genome of these organisms. Assays were performed in the presence and absence of an exogenous mammalian oxidative metabolising system (S-9 mix, a liver post-mitochondrial fraction derived from the livers of Aroclor 1254 treated rats), to mimic mammalian metabolism. The test methodology was based on established procedures for bacterial mutagenicity testing.
N,N-dimethyl-4-((6-oxopyrimidin-1(6H)-yl)methyl)benzamide was tested up to the guideline regulatory maximum dose level of 5000 μg/plate in all strains in the presence and absence of […].
There were no increases in revertant numbers, greater than the defined fold-increases (to twice the relevant negative control value for TA98, TA100 or WP2 uvrA or three times the relevant negative control value for TA1535 or TA1537), in any strain at any dose level of N,N-dimethyl-4-((6-oxopyrimidin-1(6H)-yl)methyl)benzamide, in the presence or absence of S-9 mix, under plate incorporation conditions.

human Z A1AT = human Z A1AT (Homo sapiens, UniProt P01009, E366K); experiment: Trypsin complex formation by human Z A1AT purified from plasma of treated huZ mice (Western blot); type: biochemical, huZ mouse; set-up: from tissue; host or cells: huZ (PiZZ) transgenic mice, line Z11.03, C57Bl/6 background; made in liver, measured in plasma; conditions: Z A1AT purified from plasma of huZ mice treated at 200 mg/kg twice a day by oral gavage for 10 days
Protocol: The aim of the experiment was to purify human Z A1AT from three HuZ mice which had been treated with compound N,N-dimethyl-4-((6-oxopyrimidin-1(6H)-yl)methyl)benzamide (22.1e, 24.1a, 24.1b), then test the activity of the A1AT by reaction with increasing amounts of trypsin. Reaction of A1AT with the trypsin was analysed by western blot, probing with an anti-human A1AT antibody. A control plasma from a wild type mouse treated with the same compound (15.5b) was also included in the study.
Mice were treated with N,N-dimethyl-4-((6-oxopyrimidin-[…]-yl)methyl)benzamide at 200 mg/kg twice a day by oral gavage for 10 consecutive days. Mice had access to food (standard mouse chow, SAFE diets) and water ad libitum. On study day 10, each mouse was dosed 3.5-4.5 hours prior to terminal procedures. […]
100 μl of mouse plasma was diluted to 300 μl with 20 mM Tris, 150 mM NaCl, 5 mM EDTA, pH 7.4 (reaction and wash buffer) prior to purification. […] Residual A1AT in the plasma and plasma supernatant was quantified using a human serpinA1 ELISA (Human Serpin A1/α1-antitrypsin duo set ELISA, R& D Systems, DY1268) to confirm depletion of human A1AT. The concentration of the eluted fractions were also measured. The amount of eluted A1AT was determined by measuring by A280 using an extinction coefficient of 0.45. […]

Chain of hERG (Q12809 whole entry): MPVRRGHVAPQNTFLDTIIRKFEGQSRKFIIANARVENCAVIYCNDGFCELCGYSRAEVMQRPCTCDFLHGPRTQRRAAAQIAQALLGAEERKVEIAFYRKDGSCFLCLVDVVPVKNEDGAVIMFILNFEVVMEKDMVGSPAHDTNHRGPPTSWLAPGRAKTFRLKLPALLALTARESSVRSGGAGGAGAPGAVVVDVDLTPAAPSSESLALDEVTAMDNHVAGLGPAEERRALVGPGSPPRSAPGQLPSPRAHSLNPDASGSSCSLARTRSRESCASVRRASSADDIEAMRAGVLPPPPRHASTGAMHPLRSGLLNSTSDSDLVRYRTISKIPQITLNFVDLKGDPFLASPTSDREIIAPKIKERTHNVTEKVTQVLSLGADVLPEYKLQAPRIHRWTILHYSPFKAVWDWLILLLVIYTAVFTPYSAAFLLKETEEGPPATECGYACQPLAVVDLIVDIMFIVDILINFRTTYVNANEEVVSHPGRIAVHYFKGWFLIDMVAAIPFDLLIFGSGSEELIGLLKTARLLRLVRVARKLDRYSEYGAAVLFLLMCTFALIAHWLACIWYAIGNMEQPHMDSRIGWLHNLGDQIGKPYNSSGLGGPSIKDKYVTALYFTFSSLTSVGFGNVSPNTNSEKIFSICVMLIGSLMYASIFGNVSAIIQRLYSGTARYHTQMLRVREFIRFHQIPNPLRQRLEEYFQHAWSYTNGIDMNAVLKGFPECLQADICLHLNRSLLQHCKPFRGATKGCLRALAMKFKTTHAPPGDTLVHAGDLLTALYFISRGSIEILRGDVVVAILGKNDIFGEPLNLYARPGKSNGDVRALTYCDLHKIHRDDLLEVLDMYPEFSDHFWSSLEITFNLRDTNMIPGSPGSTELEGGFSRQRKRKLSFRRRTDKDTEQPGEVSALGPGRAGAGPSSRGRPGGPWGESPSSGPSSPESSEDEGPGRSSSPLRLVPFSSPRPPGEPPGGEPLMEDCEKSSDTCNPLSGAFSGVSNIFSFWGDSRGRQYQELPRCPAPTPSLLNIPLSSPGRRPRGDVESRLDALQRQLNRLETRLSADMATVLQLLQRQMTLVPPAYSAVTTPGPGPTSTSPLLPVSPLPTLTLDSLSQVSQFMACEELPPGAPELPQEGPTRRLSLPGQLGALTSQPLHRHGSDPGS
Chain of cardiac potassium (hERG) channels (Q12809 whole entry): as above
T1 sequence (P08684 whole entry): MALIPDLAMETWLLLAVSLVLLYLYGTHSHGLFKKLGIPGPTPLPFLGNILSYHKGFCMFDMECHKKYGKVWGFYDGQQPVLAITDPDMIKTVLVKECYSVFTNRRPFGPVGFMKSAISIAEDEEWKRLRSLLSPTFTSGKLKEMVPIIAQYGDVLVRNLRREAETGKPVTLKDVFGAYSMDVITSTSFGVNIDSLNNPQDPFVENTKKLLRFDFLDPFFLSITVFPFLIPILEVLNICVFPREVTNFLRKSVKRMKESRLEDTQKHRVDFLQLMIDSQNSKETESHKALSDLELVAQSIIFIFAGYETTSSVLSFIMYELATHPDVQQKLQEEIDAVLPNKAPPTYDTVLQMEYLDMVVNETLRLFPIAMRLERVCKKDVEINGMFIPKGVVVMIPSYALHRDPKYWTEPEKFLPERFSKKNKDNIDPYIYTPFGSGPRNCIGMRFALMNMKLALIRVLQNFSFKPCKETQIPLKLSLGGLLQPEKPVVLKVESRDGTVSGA
Chain of human Z A1AT (P01009 25-418 E366K): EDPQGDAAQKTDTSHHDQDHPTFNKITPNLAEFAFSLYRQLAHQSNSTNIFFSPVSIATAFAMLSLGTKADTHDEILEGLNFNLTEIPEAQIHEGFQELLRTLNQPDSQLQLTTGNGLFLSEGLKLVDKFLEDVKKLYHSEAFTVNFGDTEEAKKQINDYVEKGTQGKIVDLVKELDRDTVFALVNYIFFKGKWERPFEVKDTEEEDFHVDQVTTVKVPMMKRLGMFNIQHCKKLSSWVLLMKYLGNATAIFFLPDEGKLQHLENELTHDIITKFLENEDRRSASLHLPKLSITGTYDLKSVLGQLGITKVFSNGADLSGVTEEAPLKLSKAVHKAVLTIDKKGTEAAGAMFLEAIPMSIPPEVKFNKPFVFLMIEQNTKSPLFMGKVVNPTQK

CN(C)C(=O)c1ccc(Cn2cnccc2=O)cc1 [N,N-dimethyl-4-((6-oxopyrimidin-1(6H)-yl)methyl)benzamide]
half-life (Pharmacokinetics in rats; iv 2 mg/kg or oral 10 mg/kg, read-out: Half-life in blood (t1/2)): 55 min
clearance (Pharmacokinetics in rats; iv 2 mg/kg or oral 10 mg/kg, read-out: Observed clearance): 10.6 mL/min/kg
Vd (Pharmacokinetics in rats; iv 2 mg/kg or oral 10 mg/kg, read-out: Volume of distribution (Vz)): 0.84 L/kg
bioavailability (Pharmacokinetics in rats; oral 10 mg/kg vs iv 2 mg/kg, read-out: Oral Bioavailability (F)): 104%
Cmax (Pharmacokinetics in rats; oral 10 mg/kg, blood): 5330 ng/mL
AUC(0-inf) (Pharmacokinetics in rats; oral 10 mg/kg, blood, read-out: Oral AUCINF): 16500 ng·h/mL
fraction unbound at 4 h, 5 μM [1]: 0.627
IC50 (CYP 3A4): > 50 µM
IC50 [2]: > 100 µM
inhibition at 100 µM (hERG): 7%
mutagenicity (revertant numbers) ([3]; all strains, plate incorporation): not mutagenic
toxicity to bacterial strains [3]: no evidence of toxicity
activity of eluted human Z A1AT (complex formation with trypsin) (human Z A1AT): native and fully active
